Experimental data as given in ChEMBL document CHEMBL6087460, “Generating a Peptide Library Using the Repeats of Amino Acid Scaffolds Created by Sliding the Framework of a 7-mer Human Chemerin Segment and Discovery of Potent Antibacterial and Antimycobacterial Peptides” (J Med Chem, 2025).
Calls of active or inactive are those of the source. The calls are words filed in the database; no cut-off is given here. Where a SMILES comes first, the peptide text is derived from it.

How the values were obtained:
[1] = Drug localization in cytoplasm of Escherichia coli ATCC 25922 at 3 times MIC by confocal microscopy; type: ADME, subcellular
[2] = system: Mycolicibacterium smegmatis; assay: Disruption of cell membrane integrity in Mycobacterium smegmatis incubated for 2 hrs by EtBr uptake assay; type: functional, organism-based
Escherichia coli [3] = assay: Antibacterial activity against Escherichia coli ATCC 25922 incubated for 16 to 18 hrs by broth dilution assay; type: functional; conditions: time 16-18 hrs
Staphylococcus aureus [4] = assay: Bactericidal activity against Staphylococcus aureus ATCC 25923 at MIC incubated for 30 mins by time kill assay; type: functional, organism-based
[5] = Toxicity in mouse assessed as change in serum AST level at 15 mg/kg, iv administered each day for 5 days measured after 7 days post-last dose; type: organism-based; conditions: in vivo, 120 h, time 5 day
Klebsiella pneumoniae = assay: Antibacterial activity against Klebsiella pneumoniae ATCC 27736 incubated for 16 to 18 hrs by broth dilution assay; type: functional; conditions: time 16-18 hrs
Escherichia coli [6] = assay: Antibacterial activity against Escherichia coli ATCC 25922 incubated for 16 to 18 hrs in presence of 10 percent human serum by broth dilution assay; type: functional; conditions: time 16-18 hrs
Staphylococcus aureus [7] = assay: Bactericidal activity against Staphylococcus aureus ATCC 25923 incubated for 16 to 18 hrs; type: functional; conditions: time 16-18 hrs
Escherichia coli [8] = assay: Bactericidal activity against Escherichia coli ATCC 25922 at MIC incubated for 45 mins by time kill assay; type: functional, organism-based
Staphylococcus aureus [9] = assay: Induction of resistance development in Staphylococcus aureus ATCC 25923 assessed as fold increase in MIC at sub-MIC measured after 25 passages relative to control; type: functional
[10] = system: Mycolicibacterium smegmatis; assay: Antitubercular activity against Mycobacterium smegmatis incubated for 24 hrs by rezasurin dye based assay; type: functional
[11] = Toxicity in BALB/c mouse infected with Mycobacterium bovis BCG assessed as animal survival at 2.5 to 5 mg/kg, iv administered once a day for 2 weeks; type: organism-based; conditions: in vivo, 336 h, dose 2.5-5 mg/kg
Staphylococcus aureus [12] = assay: Bactericidal activity against Staphylococcus aureus ATCC 25923 at MIC incubated for 45 mins by time kill assay; type: functional, organism-based
Staphylococcus aureus [13] = assay: Antibacterial activity against Staphylococcus aureus ATCC 25923 incubated for 16 to 18 hrs in presence of 10 percent human serum by broth dilution assay; type: functional; conditions: time 16-18 hrs
Staphylococcus aureus [14] = assay: Induction of membrane depolarization in Staphylococcus aureus ATCC 25923 by diSC3-5 dye based analysis; type: functional, organism-based
Escherichia coli [15] = assay: Induction of cell membrane damage in Escherichia coli ATCC 25922 at 3 times MIC incubated for 60 mins by SEM analysis; type: functional, organism-based
Pseudomonas aeruginosa = assay: Antibacterial activity against Pseudomonas aeruginosa ATCC BAA-427 incubated for 16 to 18 hrs by broth dilution assay; type: functional; conditions: time 16-18 hrs
Bacillus subtilis = assay: Antibacterial activity against Bacillus subtilis 6633 incubated for 16 to 18 hrs by broth dilution assay; type: functional; conditions: time 16-18 hrs
[16] = Cytotoxicity against rat L6 cells assessed as cell viability at 100 uM incubated for 24 hrs by MTT assay relative to control; type: toxicity, cell-based; conditions: L6 cells, read-out: Activity
Escherichia coli [17] = assay: Induction of resistance development in Escherichia coli ATCC 25922 assessed as fold increase in MIC at sub-MIC measured after 25 passages relative to control; type: functional
[18] = system: Mycolicibacterium smegmatis; assay: Antimycobacterial activity against Mycobacterium smegmatis assessed as reduction in bacterial growth at 2 times MIC pretreated for 1 hr followed by compound removal and subsequent culturing in fresh media without compound for 24 hrs measured after 4 days; type: functional, organism-based
Escherichia coli [19] = assay: Disruption of membrane integrity in Escherichia coli ATCC 25922 by PI staining based analysis; type: functional, organism-based
[20] = Hemolytic activity in human RBC measured after 40 mins by absorbance based assay; type: toxicity, cell-based, Erythrocyte; conditions: human red blood cells
Staphylococcus aureus [21] = assay: Induction of resistance development in Staphylococcus aureus ATCC 25923 assessed as fold increase in MIC at sub-MIC measured after 30 passages relative to control; type: functional
[22] = Hemolytic activity in human RBC assessed as disruption of membrane integrity by Alexa Fluor-Annexin V staining based analysis; type: toxicity, cell-based; conditions: erythrocyte
Escherichia coli [23] = assay: Bactericidal activity against Escherichia coli ATCC 25922 incubated for 16 to 18 hrs; type: functional; conditions: time 16-18 hrs
[24] = Retention time of compound by RP-HPLC method; type: physicochemical
Staphylococcus aureus [25] = assay: Disruption of membrane integrity in Staphylococcus aureus ATCC 25923 by PI staining based analysis; type: functional, organism-based
[26] = Cytotoxicity against mouse 3T3-L1 cells assessed as cell viability at 100 uM incubated for 24 hrs by MTT assay relative to control; type: toxicity, cell-based; conditions: 3T3-L1 cells, read-out: Activity
Escherichia coli [27] = assay: Induction of resistance development in Escherichia coli ATCC 25922 assessed as fold increase in MIC at sub-MIC measured after 30 passages relative to control; type: functional
Staphylococcus aureus [28] = assay: Antibacterial activity against methicillin-resistant Staphylococcus aureus 33591 incubated for 16 to 18 hrs by broth dilution assay; type: functional; conditions: time 16-18 hrs
Staphylococcus aureus [29] = assay: Induction of resistance development in methicillin-resistant Staphylococcus aureus 33591 assessed as fold increase in MIC at sub-MIC measured after 30 passages relative to control; type: functional
Escherichia coli [30] = assay: Bactericidal activity against Escherichia coli ATCC 25922 at MIC incubated for 30 mins by time kill assay; type: functional, organism-based
Staphylococcus aureus [31] = assay: Disruption of plasma membrane integrity in Staphylococcus aureus ATCC 25923 by SYTOX-Green uptake assay; type: functional, organism-based
Staphylococcus aureus [32] = assay: Induction of cell membrane damage in Staphylococcus aureus ATCC 25923 at 3 times MIC incubated for 60 mins by SEM analysis; type: functional, organism-based
Staphylococcus aureus [33] = assay: Antibacterial activity against Staphylococcus aureus ATCC 25923 incubated for 16 to 18 hrs by broth dilution assay; type: functional; conditions: time 16-18 hrs
Staphylococcus aureus [34] = assay: Induction of resistance development in methicillin-resistant Staphylococcus aureus BAA-44 assessed as fold increase in MIC at sub-MIC measured after 30 passages relative to control; type: functional
Staphylococcus aureus [35] = assay: Antibacterial activity against methicillin-resistant Staphylococcus aureus BAA-44 incubated for 16 to 18 hrs by broth dilution assay; type: functional; conditions: time 16-18 hrs
Escherichia coli [36] = assay: Induction of membrane depolarization in Escherichia coli ATCC 25922 by diSC3-5 dye based analysis; type: functional, organism-based
Escherichia coli [37] = assay: Disruption of plasma membrane integrity in Escherichia coli ATCC 25922 by SYTOX-Green uptake assay; type: functional, organism-based
[38] = Toxicity in mouse assessed as change in serum ALT level at 15 mg/kg, iv administered each day for 5 days measured after 7 days post-last dose; type: organism-based; conditions: in vivo, 120 h, time 5 day
[39] = Toxicity in mouse assessed as animal survival at 15 mg/kg, iv administered each day for 5 days measured after 7 days post-last dose; type: organism-based; conditions: in vivo, 120 h, time 5 day

In the case of `CC(C)C[C@H](NC(=O)[C@H](CCCNC(=N)N)NC(=O)CNC(=O)[C@H](CC(C)C)NC(=O)[C@H](CCCNC(=N)N)NC(=O)CNC(=O)[C@H](CC(C)C)NC(=O)[C@H](CCCNC(=N)N)NC(=O)CNC(=O)[C@H](CC(C)C)NC(=O)[C@H](CCCNC(=N)N)NC(=O)CNC(=O)[C@H](CC(C)C)NC(=O)[C@H](CCCNC(=N)N)NC(=O)CNC(=O)c1cc(C(=O)O)ccc1-c1c2ccc(=[N+](C)C)cc-2oc2cc(N(C)C)ccc12)C(=O)O.[Cl-]` (HELM PEPTIDE1{[CN(C)c1ccc2c(-c3ccc(C(=O)O)cc3C(=O)[*:2])c3ccc(=[N+](C)C)cc-3oc2c1].G.R.L.G.R.L.G.R.L.G.R.L.G.R.L}$$$$V2.0), the Drug uptake [1] was “Active”.

For H-VLGRVLGRVLGRVLGR-OH, the Activity [2] was “inactive”, the MIC (Escherichia coli [3]) was 1.8 µM and the Activity (Staphylococcus aureus [4]) was “Active; Emerged As Swiftest Molecule”. The Activity [5] was “Non-toxic”, the MIC (Klebsiella pneumoniae) was 3.6 µM and the MIC (Escherichia coli [6]) was 14.4 µM. The MBC (Staphylococcus aureus [7]) was 3.6 µM, the Activity (Escherichia coli [8]) was “Active” and the “fold change (FC)” value (Staphylococcus aureus [9]) was 2. The MIC [10] was 2.5 µM, the Activity [11] was “Non-toxic” and the Activity (Staphylococcus aureus [12]) was “Active”. The MIC (Staphylococcus aureus [13]) was 14.4 µM, the Activity (Staphylococcus aureus [14]) was “Active” and the Activity (Escherichia coli [15]) was “Active”. For the same compound, the MIC (Pseudomonas aeruginosa) was 7.3 µM, the MIC (Bacillus subtilis) was 3.6 µM and the viability at 24 h, 100 µM [16] was 75%. For the same compound, the “fold change (FC)” value (Escherichia coli [17]) was 2, the Activity [18] was “Active” and the Activity (Escherichia coli [19]) was “Active”. The HC50 at 40 min [20] was 2 mM, the “fold change (FC)” value (Staphylococcus aureus [21]) was 4 and the Activity [22] was “Non-toxic”. The MBC (Escherichia coli [23]) was 3.6 µM, the Retention_time [24] was 20.54 min and the Activity (Staphylococcus aureus [25]) was “Active”. The viability at 24 h, 100 µM [26] was 75%, the “fold change (FC)” value (Escherichia coli [27]) was 4 and the MIC (Staphylococcus aureus [28]) was 7.3 µM. For the same compound, the “fold change (FC)” value (Staphylococcus aureus [29]) was 4, the Activity (Escherichia coli [30]) was “Active; Emerged As Swiftest Molecule” and the Activity (Staphylococcus aureus [31]) was “Active”. For the same compound, the Activity (Staphylococcus aureus [32]) was “Active”, the MIC (Staphylococcus aureus [33]) was 3.6 µM and the “fold change (FC)” value (Staphylococcus aureus [34]) was 4. The MIC (Staphylococcus aureus [35]) was 3.6 µM, the Activity (Escherichia coli [36]) was “Active” and the Activity (Escherichia coli [37]) was “Active”. For the same compound, the Activity [38] was “Non-toxic” and the Activity [39] was “Non-toxic”.
